In publication PMC9221018, “Sulfonamide-Derived Dithiocarbamate Gold(I) Complexes Induce the Apoptosis of Colon Cancer Cells by the Activation of Caspase 3 and Redox Imbalance” (Biomedicines, 2022):
Read-outs that look alike come from different tables or passages of the source.

Columns and labels:
Caco-2 cells [1] = assay: Intracellular ROS levels, dichlorofluorescein assay; type: cell-based, human; details: Caco-2, different concentrations, 1, 3 and 24 h
Description: After the Caco-2 cells were seeded in a 96-well plate at a density of 4 × 10^3 cells/well, the intracellular ROS levels were determined with a dichlorofluorescein assay, following the protocol used by Quero et al.. The cells were exposed to the drug panel for 1, 3 and 24 h, and then incubated with 20 µM 2′-7′-dichlorofluorescein diacetate (DCFH-DA) (Merck KGaA, Darmstadt, Germany) in DMEM. The generation of oxidized derivative DCF was monitored by measuring the increase of the fluorescence for 1 h, at an emission wavelength of 520 nm and an excitation of 485 nm, using a FLUOstar Omega (BMG Labtech, Ortenberg, Germany) multiplate reader. The results were expressed as percentage of the fluorescence with respect to the control, considering the fluorescence intensity as a reflection of the intracellular ROS levels.

Caco-2 cells [2] = assay: MTT cytotoxicity assay in undifferentiated Caco-2 cells; type: cell-based, human
Description: The human Caco-2 cell line (TC7 clone) was kindly provided by Dr. Edith Brot-Laroche (Université Pierre et Marie Curie-Paris 6, UMR S 872, Les Cordeliers, France). Human epithelial fibroblast cells (NHDF-Ad, Lonza®®, Porriño, Spain) were kindly provided by Dr. Gracia Mendoza (Aragon Health Research Institute, IIS Aragón, Spain). Caco-2 cells (passages 40–70) and fibroblasts (passages 10–30) were maintained in a humidified atmosphere of 5% CO2 at 37 °C and grown in medium following the method used by Quero et al.. The Caco-2 cells were sub-cultured in 25 cm^2 plastic flasks at a density of 1.2 × 10^4 cells/cm^2, while the fibroblasts were sub-cultured on 75 cm^2 plastic flasks at a density of 1 × 10^4 cells/cm^2. The culture medium was replaced every 2 days.
The gold complexes were diluted in dimethyl sulfoxide (DMSO) as a 10 mM stock solution, and then diluted in cell culture medium at the desired concentrations.
For the cytotoxicity screening assays, Caco-2 cells were seeded in 96-well plates at a density of 4 × 10^3 cells/well. The culture medium was replaced with medium containing the drug panel 24 h post-seeding, and the cells were incubated for 24, 48 and 72 h. […] In differentiated Caco-2 and fibroblasts, culture medium containing metal gold complexes was added 15 days post-seeding, and the cells were incubated for 72 h. The antiproliferative effect was measured using an MTT assay, as previously described by Mármol et al.. The absorbance at 540/620 nm was measured using a SPECTROstar Nano (BMG Labtech, Ortenberg, Germany). In order to determine the selectivity index (SI), the IC50 value of the differentiated Caco-2 cells was divided by IC50 value in undifferentiated Caco-2, obtaining the ratio of the normal/cancerous cells’ toxicity.

[3] = target: T1, recombinant human carbonic anhydrase IX (Homo sapiens, UniProt Q16790); assay: Carbonic anhydrase IX esterase activity assay (4-NPA); type: biochemical; details: 30 μM, 5 min incubation
T1 construct: purchased Sigma SRP6483
Description: The in vitro effect of metal complexes on the enzyme carbonic anhydrase IX was analyzed by monitoring conversion of 4-nitrophenyl acetate (4-NPA) to 4-nitrophenol. The tests were carried out in 96-well plates. Gold complexes (4 µL) were incubated with 4 µL recombinant human carbonic anhydrase IX (Sigma SRP6483, St Louis, MO, USA) (50 µg/mL) at 25 °C for 5 min. PBS at pH 7.35 (Sigma D1408, St Louis, MO, USA) was added to reach a final volume of 90 µL. The reaction was started by adding 10 µL 4-NPA (0.5 mM in methanol), and the absorbance at 405 nm was monitored every 30 s for 1 h using a SPECTROstar Nano (BMG Labtech, Ortenberg, Germany) multiplate reader. The results were expressed as a percentage of CA-IX activity with respect to the control. The potency of the inhibtion referred to the incubation in the presence of indisulam (E7070, N-(3-chloro-7-indolyl)-1,4-benzenedisulfonamide) (Sigma SML1225, St Louis, MO, USA), which is a specific inhibitor of carbonic anhydrase isoforms IX and XII.

[4] = target: T2, recombinant human enzyme TrxR1 (Homo sapiens, UniProt Q16881); assay: Thioredoxin reductase 1 (TrxR1) activity assay (DTNB); type: biochemical; details: recombinant TrxR1, complexes at their IC50 values (1 1.14 μM, 8 7.22 μM), 5 min incubation
T2 construct: purchased Sigma SRP 6081
T2 sequence (Q16881 161-647 limits assumed): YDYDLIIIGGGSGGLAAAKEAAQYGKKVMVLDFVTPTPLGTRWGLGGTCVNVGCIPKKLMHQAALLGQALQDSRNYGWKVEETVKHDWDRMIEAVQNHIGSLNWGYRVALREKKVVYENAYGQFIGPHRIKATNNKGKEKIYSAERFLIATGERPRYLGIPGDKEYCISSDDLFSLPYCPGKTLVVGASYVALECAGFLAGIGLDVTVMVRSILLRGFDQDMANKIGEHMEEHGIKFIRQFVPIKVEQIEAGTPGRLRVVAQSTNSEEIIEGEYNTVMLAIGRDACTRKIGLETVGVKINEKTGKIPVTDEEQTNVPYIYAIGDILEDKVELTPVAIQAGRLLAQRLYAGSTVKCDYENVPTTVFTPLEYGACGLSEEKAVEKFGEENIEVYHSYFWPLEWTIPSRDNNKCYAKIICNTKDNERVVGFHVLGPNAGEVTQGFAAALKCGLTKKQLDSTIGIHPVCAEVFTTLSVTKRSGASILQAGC
Description: The in vitro interaction of metal complexes with the enzyme thioredoxin reductase was analyzed using a thioredoxin reductase assay kit (Sigma, CS0170, St Louis, MO, USA). The procedure instructions in the kit were followed, though the rat liver thioredoxin reductase was replaced with recombinant human enzyme TrxR1 (SRP 6081, Sigma, St Louis, MO, USA). The reaction was initiated by adding DTNB (100 mM), and conversion to TNB^− was monitored at 412 nm every 30 s for 22 min using a SPECTROstar Nano (BMG Labtech, Ortenberg, Germany) multiplate reader. The results were expressed as a percentage of the TrxR activity with respect to the control.

[5] = 24 h incubation, read-out: IC50 24 h
[6] = 48 h incubation, read-out: IC50 48 h
[7] = 72 h incubation, read-out: IC50 72 h
[8] = treatment for 72 h, read-out: IC50

Compound	intracellular ROS levels (Caco-2 cells [1])	IC50 (Caco-2 cells [2]; [5])	IC50 (Caco-2 cells [2]; [6])	IC50 (Caco-2 cells [2]; [7])	IC50 (Caco-2 cells [2]; [8])	reduction in the esterase activity of CA [3]	decrease in TrxR activity [4]
O=S(=O)(NC(=S)[S][Au][PH](c1ccccc1)(c1ccccc1)c1ccccc1)c1ccccc1 [Complex 1, [Au(S2CNHSO2C6H5)(PPh3)]]	time- and concentration-dependent pro-oxidant effect	1920 ± 130 nM	1380 ± 210 nM	1140 ± 250 nM	1140 ± 250 nM	48%	around 80%
[Au(S2CNHSO2-p-Me-C6H4)(IMePropargyl)] [Complex 8]	time- and concentration-dependent pro-oxidant effect	> 50000 nM	37400 ± 7480 nM	7220 ± 380 nM	7220 ± 380 nM	31%	around 80%
